In ChEMBL document CHEMBL4304837, “Discovery of Pyridazinone and Pyrazolo[1,5-a]pyridine Inhibitors of C-Terminal Src Kinase” (ACS Med Chem Lett, 2019):
pIC50: −log10 of the molar value.

Legend:
[1] = Metabolic stability in mouse liver microsomes assessed as compound remaining at 0.5 uM measured after 10 mins in presence of NADPH by LC-MS/MS analysis; format: ADME, Microsome; conditions: read-out: Stability
[2] = molecular target: T1, Tyrosine-protein kinase ZAP-70 (Homo sapiens) (UniProt P43403); experiment: Effect on ZAP70 phosphorylation in human Jurkat cells pre-incubated for 30 mins followed by anti-CD3/CD28 stimulation measured after 10 mins relative to control; format: cell-based
T1 sequence (whole entry): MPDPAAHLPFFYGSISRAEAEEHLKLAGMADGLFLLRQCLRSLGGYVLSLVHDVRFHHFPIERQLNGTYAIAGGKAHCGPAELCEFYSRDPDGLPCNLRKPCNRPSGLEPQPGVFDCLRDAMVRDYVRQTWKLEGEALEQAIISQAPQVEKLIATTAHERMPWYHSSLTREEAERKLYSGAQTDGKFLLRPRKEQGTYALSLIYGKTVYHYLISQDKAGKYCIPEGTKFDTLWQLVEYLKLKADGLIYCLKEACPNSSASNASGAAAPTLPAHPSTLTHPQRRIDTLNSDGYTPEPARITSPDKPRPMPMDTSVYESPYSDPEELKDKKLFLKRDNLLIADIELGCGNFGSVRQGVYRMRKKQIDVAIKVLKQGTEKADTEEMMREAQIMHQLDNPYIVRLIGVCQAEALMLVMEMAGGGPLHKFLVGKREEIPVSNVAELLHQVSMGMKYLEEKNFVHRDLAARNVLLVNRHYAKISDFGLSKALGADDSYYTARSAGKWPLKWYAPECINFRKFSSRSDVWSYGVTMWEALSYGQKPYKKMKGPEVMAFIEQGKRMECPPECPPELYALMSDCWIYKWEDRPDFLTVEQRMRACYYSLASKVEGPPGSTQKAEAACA

[3] = Metabolic stability in human liver microsomes assessed as compound remaining at 0.5 uM measured after 10 mins in presence of NADPH by LC-MS/MS analysis; format: ADME, Microsome; conditions: read-out: Stability
[4] = Drug metabolism in mouse liver microsomes assessed as oxidation at indazole ring by soft spot analysis; format: ADME, Microsome
[5] = Half life in human liver microsomes at 0.5 uM measured up to 45 mins by LC-MS/MS analysis; format: ADME, Microsome
[6] = Half life in mouse liver microsomes at 0.5 uM measured up to 45 mins by LC-MS/MS analysis; format: ADME, Microsome
[7] = Protein binding in human serum assessed as unbound fraction measured up to 5 hrs by LC-MS/MS analysis relative to control; format: ADME, cell-free
[8] = Protein binding in mouse serum assessed as unbound fraction measured up to 5 hrs by LC-MS/MS analysis relative to control; format: ADME, cell-free
[9] = Cmax in C57BL/6 mouse at 100 mg/kg, po; format: ADME, organism-based; set-up: dose 100 mg/kg, route oral; conditions: in vivo
[10] = Tmax in C57BL/6 mouse at 100 mg/kg, po; format: ADME, organism-based; conditions: in vivo
[11] = AUC in C57BL/6 mouse at 100 mg/kg, po; format: ADME, organism-based; conditions: in vivo
[12] = Plasma concentration in C57BL/6 mouse at 100 mg/kg, po; format: ADME, organism-based; conditions: in vivo
[13] = Drug concentration in C57BL/6 mouse at 100 mg/kg, po after 24 hrs; format: ADME, organism-based; conditions: in vivo, read-out: Ct
[14] = Half life in C57BL/6 mouse at 100 mg/kg, po; format: ADME, organism-based; conditions: in vivo
[15] = Drug metabolism in mouse liver microsomes assessed as oxidation at […] group by soft spot analysis; format: ADME, Microsome
[16] = organism: Homo sapiens; experiment: Immunostimulatory activity in human CD4-positive T cells assessed as increase in OKT-induced IL-2 secretion pre incubated for 15 mins followed by co-culture with CHO cells over-expressing OKT and measured after 48 hrs by AlphaLisa assay; format: functional, cell-based
[17] = organism: Homo sapiens; experiment: Immunostimulatory activity in human CD4-positive T cells assessed as increase in OKT-induced increase in CD4-positive T cells proliferation pre incubated for 15 mins followed by co-culture with CHO cells over-expressing OKT and measured after 72 hrs by MTS assay; format: functional, cell-based
[18] = Effect on human CD4-positive T cell activation assessed as increase in IL-2 secretion preincubated for 15 mins followed by co-culture with CHO cells and measured after 48 hrs by AlphaLisa assay
[19] = Effect on human CD4-positive T cell activation assessed as increase in increase in CD4-positive T cells proliferation preincubated for 15 mins followed by co-culture with CHO cells and measured after 48 hrs by AlphaLisa assay; format: cell-based
[20] = molecular target: Tyrosine-protein kinase Lck (Homo sapiens, UniProt P06239); experiment: Inhibition of His-tagged/GST-tagged LCK (unknown origin) incubated for 1 hr by TR-FRET assay
Chain of Tyrosine-protein kinase Lck (P06239 whole entry): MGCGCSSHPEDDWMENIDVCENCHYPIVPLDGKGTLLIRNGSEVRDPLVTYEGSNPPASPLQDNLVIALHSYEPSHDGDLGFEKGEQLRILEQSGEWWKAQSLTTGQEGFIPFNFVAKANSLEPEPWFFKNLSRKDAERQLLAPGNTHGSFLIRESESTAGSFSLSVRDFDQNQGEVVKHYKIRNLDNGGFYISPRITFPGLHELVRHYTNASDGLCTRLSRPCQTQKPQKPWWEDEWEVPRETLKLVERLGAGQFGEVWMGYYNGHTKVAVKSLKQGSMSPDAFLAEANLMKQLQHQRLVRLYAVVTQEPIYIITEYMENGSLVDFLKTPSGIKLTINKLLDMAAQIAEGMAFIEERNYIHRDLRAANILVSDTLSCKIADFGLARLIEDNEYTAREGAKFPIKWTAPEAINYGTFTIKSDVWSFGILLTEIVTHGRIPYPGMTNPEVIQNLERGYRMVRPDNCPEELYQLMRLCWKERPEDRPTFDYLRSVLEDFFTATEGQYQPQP

SMILES: COc1ccc2c(C(=O)Nc3ccc(NC(=O)c4nn(C)c5ccccc45)cc3C)cnn2c1
- remaining at 10 min, 0.5 µM [1]: 59%

SMILES: Cc1cc(NC(=O)c2nn(C3CCN(C(=O)NC(C)(C)C)CC3)c3ccccc23)ccc1NC(=O)c1cnn2ccccc12
- Emax [2]: 190%
- remaining at 10 min, 0.5 µM [3]: 72%
- remaining at 10 min, 0.5 µM [1]: 10%
- Drug metabolism [4]: Metabolite_Detected

SMILES: CCc1cc(NC(=O)c2nn(C3CCN(C(=O)NC(C)(C)C)CC3)c3ccccc23)ccc1-c1n[nH]c(=O)cc1C
- Emax [2]: 350%
- remaining at 10 min, 0.5 µM [3]: 53%
- remaining at 10 min, 0.5 µM [1]: 78%
- half-life at 0.5 µM [5]: 0.167 h
- half-life at 0.5 µM [6]: 0.517 h
- Fu [7]: 0.4%
- Fu [8]: 0.9%
- Cmax [9]: 17.3 µM
- Tmax [10]: 0.3 h
- AUC [11]: 51.5 µM·h
- concentration [12]: 8.7 µM
- concentration at 24 h [13]: 0.001 µM
- half-life [14]: 1.9 h

SMILES: Cc1cc(NC(=O)c2nn(C3CCN(C(=O)CC(C)(C)C#N)CC3)c3ccccc23)ccc1NC(=O)c1cnn2ccccc12
- Emax [2]: 370%
- remaining at 10 min, 0.5 µM [3]: 85%
- remaining at 10 min, 0.5 µM [1]: 9%
- Drug metabolism [15]: Metabolite_Detected

SMILES: CCc1cc(NC(=O)c2nn(C3CCN(C(=O)NC(C)(C)C)CC3)c3ccccc23)ccc1-c1cc(C)c(=O)[nH]n1
- Emax [2]: 280%
- remaining at 10 min, 0.5 µM [3]: 72%
- remaining at 10 min, 0.5 µM [1]: 1%

SMILES: COc1ccc2c(C(=O)Nc3ccc(NC(=O)c4nn(C5CCN(C(=O)NC(C)(C)C)CC5)c5ccc(F)cc45)cc3Cl)cnn2c1
- Emax [2]: 210%
- remaining at 10 min, 0.5 µM [3]: 85%
- remaining at 10 min, 0.5 µM [1]: 99%
- half-life at 0.5 µM [5]: > 2 h
- half-life at 0.5 µM [6]: 1.47 h
- Fu [7]: 0.4%
- Fu [8]: < 0.2%

SMILES: COc1ccc2c(C(=O)Nc3ccc(NC(=O)c4nn(C5CCN(C(=O)CC(C)(C)C#N)CC5)c5ccc(F)cc45)cc3Cl)cnn2c1
- Emax [2]: 360%
- remaining at 10 min, 0.5 µM [3]: 91%
- remaining at 10 min, 0.5 µM [1]: 100%
- half-life at 0.5 µM [5]: > 2 h
- half-life at 0.5 µM [6]: > 2 h
- Fu [7]: < 0.1%
- Fu [8]: 0.3%
- Cmax [9]: 19.3 µM
- Tmax [10]: 7 h
- AUC [11]: 222 µM·h
- Activity [16]: Dose-dependent effect
- Activity [17]: Dose-dependent effect
- concentration at 24 h [13]: 1.3 µM
- half-life [14]: 5.3 h
- Activity [18]: Non-Toxic
- Activity [19]: Non-Toxic

SMILES: CC(C)(C)NC(=O)N1CCC(n2nc(C(=O)Nc3ccc(-c4ccc(=O)[nH]n4)c(Cl)c3)c3ccccc32)CC1
- Emax [2]: 180%
- remaining at 10 min, 0.5 µM [3]: 65%
- remaining at 10 min, 0.5 µM [1]: 15%

SMILES: CC(C)(C)NC(=O)N1CCC(n2nc(C(=O)Nc3ccc(NC(=O)c4cnn5ccccc45)c(Cl)c3)c3ccccc32)CC1
- Emax [2]: 250%
- remaining at 10 min, 0.5 µM [3]: 84%
- remaining at 10 min, 0.5 µM [1]: 24%

SMILES: CC(C)(C)NC(=O)N1CC(Cn2nc(C(=O)Nc3ccc(-c4ccc(=O)[nH]n4)c(Cl)c3)c3ccccc32)C1
- pIC50 [20]: < 4.30
- Emax [2]: 73%
- remaining at 10 min, 0.5 µM [3]: 2%
- remaining at 10 min, 0.5 µM [1]: 33%

SMILES: Cc1cc(=O)[nH]nc1-c1ccc(NC(=O)c2nn(C3CCN(C(=O)NC(C)(C)C)CC3)c3ccccc23)cc1Cl
- Emax [2]: 350%
- remaining at 10 min, 0.5 µM [3]: 68%
- remaining at 10 min, 0.5 µM [1]: 9%

SMILES: COc1ccc2c(C(=O)Nc3ccc(NC(=O)c4nn(C5CCN(C(=O)NC(C)(C)C)CC5)c5ccccc45)cc3C)cnn2c1
- Emax [2]: 220%
- remaining at 10 min, 0.5 µM [3]: 80%
- remaining at 10 min, 0.5 µM [1]: 2%

SMILES: CC(C)(C)NC(=O)N1CCC(n2nc(C(=O)Nc3ccc(NC(=O)c4cnn5ccccc45)cc3)c3ccccc32)CC1
- Emax [2]: 240%
- remaining at 10 min, 0.5 µM [3]: 71%
- remaining at 10 min, 0.5 µM [1]: 21%

SMILES: CCc1cc(NC(=O)c2nn(C3CCN(C(=O)NC(C)(C)C)CC3)c3ccccc23)ccc1-c1n[nH]c(=O)c(C)c1C
- Emax [2]: 270%
- remaining at 10 min, 0.5 µM [3]: 61%
- remaining at 10 min, 0.5 µM [1]: 59%
- half-life at 0.5 µM [5]: 0.233 h
- half-life at 0.5 µM [6]: 0.2 h
- Fu [7]: 0.5%
- Fu [8]: 1%
